PubChem BioAssay AID2060491 (Molecular Pharmacology Branch, DTP, NCI, 2025)

Test system: 857933-349-R-J2-PDC complex spheroids, viability
Assay: Anticancer human tumor 857933-349-R-J2-PDC patient-derived colon adenocarcinoma cell line growth inhibition [GQUAD]
Conditions: for IC50: curve of first compound; for viability, T/C: stronger effect = lower value
Summary of the method: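 Multi-cell-type spheroids of tumor cells with HUVEC and mesenchymal stem cells, treated with drug combinations. Concentrations descend in half-log steps from near clinical Cmax, or from 10 microM where Cmax is unknown; viability read-out.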

[1] = second compound 0.0316 µM, first compound 0.0316 µM
[2] = second compound 0.0316 µM, first compound 0.1 µM
[3] = second compound 0.0316 µM, first compound 0.316 µM
[4] = second compound 0.0316 µM, first compound 1 µM
[5] = second compound 0.0316 µM, first compound 3.16 µM
[6] = second compound 0.0316 µM, first compound 10 µM
[7] = second compound 0.1 µM, first compound 0.0316 µM
[8] = second compound 0.1 µM, first compound 0.1 µM
[9] = second compound 0.1 µM, first compound 0.316 µM
[10] = second compound 0.1 µM, first compound 1 µM
[11] = second compound 0.1 µM, first compound 3.16 µM
[12] = second compound 0.1 µM, first compound 10 µM
[13] = second compound 0.316 µM, first compound 0.0316 µM
[14] = second compound 0.316 µM, first compound 0.1 µM
[15] = second compound 0.316 µM, first compound 0.316 µM
[16] = second compound 0.316 µM, first compound 1 µM
[17] = second compound 0.316 µM, first compound 3.16 µM
[18] = second compound 0.316 µM, first compound 10 µM
[19] = second compound 1 µM, first compound 0.0316 µM
[20] = second compound 1 µM, first compound 0.1 µM
[21] = second compound 1 µM, first compound 0.316 µM
[22] = second compound 1 µM, first compound 1 µM
[23] = second compound 1 µM, first compound 3.16 µM
[24] = second compound 1 µM, first compound 10 µM
[25] = second compound 3.16 µM, first compound 0.0316 µM
[26] = second compound 3.16 µM, first compound 0.1 µM
[27] = second compound 3.16 µM, first compound 0.316 µM
[28] = second compound 3.16 µM, first compound 1 µM
[29] = second compound 3.16 µM, first compound 3.16 µM
[30] = second compound 3.16 µM, first compound 10 µM
[31] = second compound 10 µM, first compound 0.0316 µM
[32] = second compound 10 µM, first compound 0.1 µM
[33] = second compound 10 µM, first compound 0.316 µM
[34] = second compound 10 µM, first compound 1 µM
[35] = second compound 10 µM, first compound 3.16 µM
[36] = second compound 10 µM, first compound 10 µM
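Further: spheroids exposed to compounds for one week before readout.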
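Wherever viability, T/C is given: percent viability relative to vehicle DMSO wells taken as 100%.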

SMILES: CC(=O)O[C@H]1C(=O)[C@@]2(C)[C@H]([C@H](OC(=O)c3ccccc3)[C@]3(O)C[C@H](OC(=O)[C@H](O)[C@@H](NC(=O)c4ccccc4)c4ccccc4)C(C)=C1C3(C)C)[C@]1(OC(C)=O)CO[C@@H]1C[C@@H]2O + Cc1cnc(CNC(=O)c2c(=O)c3ccc(N4CCCN(C)CC4)nc3n3c2sc2ccccc23)cn1
- IC50 (second compound 0.0316 µM): < 31.6 nM
- IC50 (second compound 0.1 µM): < 31.6 nM
- IC50 (second compound 0.316 µM): < 31.6 nM
- IC50 (second compound 1 µM): < 31.6 nM
- IC50 (second compound 3.16 µM): < 31.6 nM
- IC50 (second compound 10 µM): < 31.6 nM
- viability, T/C [1]: 40.6%
- viability, T/C [2]: 13.7%
- viability, T/C [3]: 8.87%
- viability, T/C [4]: 6.32%
- viability, T/C [5]: 6.9%
- viability, T/C [6]: 11.3%
- viability, T/C [7]: 31.5%
- viability, T/C [8]: 14%
- viability, T/C [9]: 6.78%
- viability, T/C [10]: 6.48%
- viability, T/C [11]: 6.61%
- viability, T/C [12]: 7.71%
- viability, T/C [13]: 14.6%
- viability, T/C [14]: 9.67%
- viability, T/C [15]: 5.73%
- viability, T/C [16]: 5.21%
- viability, T/C [17]: 4.57%
- viability, T/C [18]: 6.73%
- viability, T/C [19]: 3.73%
- viability, T/C [20]: 3.78%
- viability, T/C [21]: 3.68%
- viability, T/C [22]: 2.27%
- viability, T/C [23]: 2.21%
- viability, T/C [24]: 3.57%
- viability, T/C [25]: 2.95%
- viability, T/C [26]: 2.49%
- viability, T/C [27]: 1.98%
- viability, T/C [28]: 1.77%
- viability, T/C [29]: 1.78%
- viability, T/C [30]: 2.45%
- viability, T/C [31]: 0.16%
- viability, T/C [32]: 0.18%
- viability, T/C [33]: 0.19%
- viability, T/C [34]: 0.14%
- viability, T/C [35]: 0.17%
- viability, T/C [36]: 0.19%

SMILES: C=CCn1c(=O)c2cnc(Nc3ccc(N4CCN(C)CC4)cc3)nc2n1-c1cccc(C(C)(C)O)n1 + Cc1cnc(CNC(=O)c2c(=O)c3ccc(N4CCCN(C)CC4)nc3n3c2sc2ccccc23)cn1
- IC50 (second compound 0.0316 µM): 696 nM
- IC50 (second compound 0.1 µM): 263 nM
- IC50 (second compound 0.316 µM): < 31.6 nM
- IC50 (second compound 1 µM): < 31.6 nM
- IC50 (second compound 3.16 µM): < 31.6 nM
- IC50 (second compound 10 µM): < 31.6 nM
- viability, T/C [1]: 92.5%
- viability, T/C [2]: 77.4%
- viability, T/C [3]: 76.8%
- viability, T/C [4]: 38.5%
- viability, T/C [5]: 7.81%
- viability, T/C [6]: 10.4%
- viability, T/C [7]: 53.7%
- viability, T/C [8]: 64.7%
- viability, T/C [9]: 42.7%
- viability, T/C [10]: 32%
- viability, T/C [11]: 4.33%
- viability, T/C [12]: 7.51%
- viability, T/C [13]: 19.5%
- viability, T/C [14]: 21.2%
- viability, T/C [15]: 11.9%
- viability, T/C [16]: 5.37%
- viability, T/C [17]: 2.1%
- viability, T/C [18]: 3.41%
- viability, T/C [19]: 3.56%
- viability, T/C [20]: 3.34%
- viability, T/C [21]: 2.67%
- viability, T/C [22]: 2.03%
- viability, T/C [23]: 1.76%
- viability, T/C [24]: 2.24%
- viability, T/C [25]: 2.07%
- viability, T/C [26]: 2.26%
- viability, T/C [27]: 2.31%
- viability, T/C [28]: 1.3%
- viability, T/C [29]: 0.68%
- viability, T/C [30]: 1.5%
- viability, T/C [31]: 0.17%
- viability, T/C [32]: 0.27%
- viability, T/C [33]: 0.23%
- viability, T/C [34]: 0.2%
- viability, T/C [35]: 0.19%
- viability, T/C [36]: 0.22%

SMILES: COc1cccc2c1C(=O)c1c(O)c3c(c(O)c1C2=O)CC(O)(C(=O)CO)CC3OC1CC(N)C(O)C(C)O1 (stereo not drawn) + Cc1cnc(CNC(=O)c2c(=O)c3ccc(N4CCCN(C)CC4)nc3n3c2sc2ccccc23)cn1
- IC50 (second compound 0.0316 µM): 398 nM
- IC50 (second compound 0.1 µM): 212 nM
- IC50 (second compound 0.316 µM): < 31.6 nM
- IC50 (second compound 1 µM): < 31.6 nM
- IC50 (second compound 3.16 µM): < 31.6 nM
- IC50 (second compound 10 µM): < 31.6 nM
- viability, T/C [1]: 72.5%
- viability, T/C [2]: 51.6%
- viability, T/C [3]: 54.1%
- viability, T/C [4]: 35.8%
- viability, T/C [5]: 3.33%
- viability, T/C [6]: 0.11%
- viability, T/C [7]: 53%
- viability, T/C [8]: 57.9%
- viability, T/C [9]: 44.4%
- viability, T/C [10]: 29.3%
- viability, T/C [11]: 2.19%
- viability, T/C [12]: 0.13%
- viability, T/C [13]: 27.1%
- viability, T/C [14]: 29.6%
- viability, T/C [15]: 11.8%
- viability, T/C [16]: 4.55%
- viability, T/C [17]: 0.39%
- viability, T/C [18]: 0.1%
- viability, T/C [19]: 5.09%
- viability, T/C [20]: 6.32%
- viability, T/C [21]: 3.38%
- viability, T/C [22]: 1.67%
- viability, T/C [23]: 0.15%
- viability, T/C [24]: 0.09%
- viability, T/C [25]: 2.45%
- viability, T/C [26]: 2.76%
- viability, T/C [27]: 1.56%
- viability, T/C [28]: 0.62%
- viability, T/C [29]: 0.14%
- viability, T/C [30]: 0.12%
- viability, T/C [31]: 2.24%
- viability, T/C [32]: 2.09%
- viability, T/C [33]: 0.73%
- viability, T/C [34]: 0.23%
- viability, T/C [35]: 0.23%
- viability, T/C [36]: 0.19%

SMILES: CC[C@@]1(O)C(=O)OCc2c1cc1n(c2=O)Cc2cc3c(CN(C)C)c(O)ccc3nc2-1 + Cc1[nH]c2ccc(F)cc2c1-c1nc2c3cccnc3c3ncccc3c2[nH]1
- IC50 (second compound 0.0316 µM): 153 nM
- IC50 (second compound 0.1 µM): 130 nM
- IC50 (second compound 0.316 µM): 144 nM
- IC50 (second compound 1 µM): 164 nM
- IC50 (second compound 3.16 µM): 132 nM
- IC50 (second compound 10 µM): 192 nM
- viability, T/C (second compound 0.0316 µM, first compound 0.000999 µM): 96.7%
- viability, T/C (second compound 0.0316 µM, first compound 0.00316 µM): 94.6%
- viability, T/C (second compound 0.0316 µM, first compound 0.00999 µM): 89.8%
- viability, T/C [1]: 63.5%
- viability, T/C (second compound 0.0316 µM, first compound 0.0999 µM): 60.8%
- viability, T/C [3]: 39.6%
- viability, T/C (second compound 0.1 µM, first compound 0.000999 µM): 91.8%
- viability, T/C (second compound 0.1 µM, first compound 0.00316 µM): 99.7%
- viability, T/C (second compound 0.1 µM, first compound 0.00999 µM): 90.2%
- viability, T/C [7]: 67.7%
- viability, T/C (second compound 0.1 µM, first compound 0.0999 µM): 56.6%
- viability, T/C [9]: 39.7%
- viability, T/C (second compound 0.316 µM, first compound 0.000999 µM): 102%
- viability, T/C (second compound 0.316 µM, first compound 0.00316 µM): 93.6%
- viability, T/C (second compound 0.316 µM, first compound 0.00999 µM): 97.6%
- viability, T/C [13]: 72.6%
- viability, T/C (second compound 0.316 µM, first compound 0.0999 µM): 54.9%
- viability, T/C [15]: 42.8%
- viability, T/C (second compound 1 µM, first compound 0.000999 µM): 103%
- viability, T/C (second compound 1 µM, first compound 0.00316 µM): 89.1%
- viability, T/C (second compound 1 µM, first compound 0.00999 µM): 92.8%
- viability, T/C [19]: 73.9%
- viability, T/C (second compound 1 µM, first compound 0.0999 µM): 60.5%
- viability, T/C [21]: 36.6%
- viability, T/C (second compound 3.16 µM, first compound 0.000999 µM): 97.8%
- viability, T/C (second compound 3.16 µM, first compound 0.00316 µM): 95.7%
- viability, T/C (second compound 3.16 µM, first compound 0.00999 µM): 88.8%
- viability, T/C [25]: 90.8%
- viability, T/C (second compound 3.16 µM, first compound 0.0999 µM): 53.4%
- viability, T/C [27]: 39.2%
- viability, T/C (second compound 10 µM, first compound 0.000999 µM): 105%
- viability, T/C (second compound 10 µM, first compound 0.00316 µM): 86.2%
- viability, T/C (second compound 10 µM, first compound 0.00999 µM): 89.4%
- viability, T/C [31]: 73.7%
- viability, T/C (second compound 10 µM, first compound 0.0999 µM): 62.6%
- viability, T/C [33]: 40.4%
